The values that follow come from patent US12084472B2 (Ardelyx, Inc., priority 2015, dated 2024).

The target of the experiment is T1, human TGR5 (Homo sapiens, UniProt Q8TDU6).
T1 construct: expressed in transfected cells; host or cells: HEK293
T1 sequence (Q8TDU6 1-330): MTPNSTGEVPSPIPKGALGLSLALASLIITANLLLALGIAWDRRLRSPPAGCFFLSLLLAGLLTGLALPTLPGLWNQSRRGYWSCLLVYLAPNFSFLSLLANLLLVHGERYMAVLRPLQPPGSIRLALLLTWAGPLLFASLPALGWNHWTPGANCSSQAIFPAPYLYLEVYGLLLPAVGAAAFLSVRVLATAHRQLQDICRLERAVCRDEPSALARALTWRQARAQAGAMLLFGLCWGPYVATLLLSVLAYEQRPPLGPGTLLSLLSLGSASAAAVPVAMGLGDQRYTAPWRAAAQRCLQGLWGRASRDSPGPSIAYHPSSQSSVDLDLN
The experiment in a line: Cell-based TGR5 assay (cAMP generation, HTRF). The note with it: HEK293 cells stably transfected with human TGR5; cAMP by HTRF; 30 minutes at 37° C.; read-out: pEC50 Human TGR5 (converted). In short, it runs like this:
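Read-out was HTRF detection of cAMP, converted to concentration via a standard curve and fitted (3-parameter logistic) for pEC50 and maximal response. Agonist stimulation used HEK293 cells stably transfected with human TGR5, incubated 30 min at 37° C in IBMX-containing buffer at 0.05 nM to 10 μM compound.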
In the case of `CCN(CCOCCNC(=O)NC[C@H](O)[C@@H](O)[C@H](O)[C@H](O)CO)S(=O)(=O)c1ccc(Cl)c(COC2(c3cnccc3-c3ccccc3OC3CC3)CC2)c1` [Compound I-411, 1-(2-{2-[N-ethyl4-chloro-3-({1-[4-(2-cyclopropoxyphenyl)pyridin-3-yl]cyclopropoxy}methyl)benzenesulfonamido]ethoxy}ethyl)-3-[(2S,3R,4R,5R)-2,3,4,5,6-pentahydroxyhexyl]urea], the EC50 was under 100 nM.

For the compound `COCCN(CCCCCNC(=O)NC[C@H](O)[C@@H](O)[C@H](O)[C@H](O)CO)S(=O)(=O)c1ccc(Cl)c(COC2(c3cnccc3-c3ccccc3OC3CC3)CC2)c1` [Compound I-412, 1-{5-[N-(2-methoxyethyl)4-chloro-3-({1-[4-(2-cyclopropoxyphenyl)pyridin-3-yl]cyclopropoxy}methyl)benzenesulfonamido]pentyl}-3-[(2S,3R,4R,5R)-2,3,4,5,6-pentahydroxyhexyl]urea], the EC50 is under 100 nM. With `COCCN(CCCCCNC(=O)N[C@@H](CO)[C@@H](O)[C@H](O)[C@H](O)CO)S(=O)(=O)c1ccc(Cl)c(COC2(c3cnccc3-c3ccccc3OC3CC3)CC2)c1` [Compound I-413, 1-{5-[N-(2-methoxyethyl)4-chloro-3-({1-[4-(2-cyclopropoxyphenyl)pyridin-3-yl]cyclopropoxy}methyl)benzenesulfonamido]pentyl}-3-[(2S,3R,4S,5R)-1,3,4,5,6-pentahydroxyhexan-2-yl]urea] the figure was under 100 nM.

As to `O=C(NCCCCN(CCO)S(=O)(=O)c1ccc(Cl)c(COC2(c3cnccc3-c3ccccc3OC3CC3)CC2)c1)NC[C@H](O)[C@@H](O)[C@H](O)[C@H](O)CO` [Compound I-414, 1-{4-[N-(2-hydroxyethyl)4-chloro-3-({1-[4-(2-cyclopropoxyphenyl)pyridin-3-yl]cyclopropoxy}methyl)benzenesulfonamido]butyl}-3-[(2S,3R,4R,5R)-2,3,4,5,6-pentahydroxyhexyl]urea], the EC50 was under 100 nM. On to `CCN(CCOCCNC(=O)N[C@@H](CO)[C@@H](O)[C@H](O)[C@H](O)CO)S(=O)(=O)c1ccc(Cl)c(COC2(c3cnccc3-c3ccccc3OC3CC3)CC2)c1` [Compound I-415, 1-(2-{2-[N-ethyl4-chloro-3-({1-[4-(2-cyclopropoxyphenyl)pyridin-3-yl]cyclopropoxy}methyl)benzenesulfonamido]ethoxy}ethyl)-3-[(2S,3R,4S,5R)-1,3,4,5,6-pentahydroxyhexan-2-yl]urea], for which the EC50 is under 100 nM. Under `COCCN(CCCCNC(=O)N[C@@H](CO)[C@@H](O)[C@H](O)[C@H](O)CO)S(=O)(=O)c1ccc(Cl)c(COC2(c3cnccc3-c3ccccc3OC3CC3)CC2)c1` [Compound I-416, 1-{4-[N-(2-methoxyethyl)4-chloro-3-({1-[4-(2-cyclopropoxyphenyl)pyridin-3-yl]cyclopropoxy}methyl)benzenesulfonamido]butyl}-3-[(2S,3R,4S,5R)-1,3,4,5,6-pentahydroxyhexan-2-yl]urea] stands under 100 nM. Under `O=C(NCCC1CCN(S(=O)(=O)c2ccc(Cl)c(COC3(c4cnccc4-c4ccccc4OC4CC4)CC3)c2)CC1)NC[C@H](O)[C@@H](O)[C@H](O)[C@H](O)CO` [Compound I-417, 1-(2-{1-[4-chloro-3-({1-[4-(2-cyclopropoxyphenyl)pyridin-3-yl]cyclopropoxy}methyl)benzenesulfonyl]piperidin-4-yl}ethyl)-3-[(2S,3R,4R,5R)-2,3,4,5,6-pentahydroxyhexyl]urea] stands under 100 nM. With `O=C(NC[C@H](O)[C@@H](O)[C@H](O)[C@H](O)CO)N[C@H]1CC[C@H](NS(=O)(=O)c2ccc(Cl)c(COC3(c4cnccc4-c4ccccc4OC4CC4)CC3)c2)CC1` [Compound I-418, 3-[(2S,3R,4R,5R)-2,3,4,5,6-pentahydroxyhexyl]-1-[(1r,4r)-4-[4-chloro-3-({l-[4-(2-cyclopropoxyphenyl)pyridin-3-yl]cyclopropoxy}methyl)benzenesulfonamido]cyclohexyl]urea] the figure was under 100 nM; with `O=C(NC[C@H](O)[C@@H](O)[C@H](O)[C@H](O)CO)N[C@H]1CC[C@@H](NS(=O)(=O)c2ccc(Cl)c(COC3(c4cnccc4-c4ccccc4OC4CC4)CC3)c2)CC1` [Compound I-419, 3-[(2S,3R,4R,5R)-2,3,4,5,6-pentahydroxyhexyl]-1-[(1s,4s)-4-[4-chloro-3-({1-[4-(2-cyclopropoxyphenyl)pyridin-3-yl]cyclopropoxy}methyl)benzenesulfonamido]cyclohexyl]urea], under 100 nM. Regarding `O=C(NCC1CCN(S(=O)(=O)c2ccc(Cl)c(COC3(c4cnccc4-c4ccccc4OC4CC4)CC3)c2)C1)NC[C@H](O)[C@@H](O)[C@H](O)[C@H](O)CO` (stereo partly drawn) [Compound I-420, 1-({1-[4-chloro-3-({1-[4-(2-cyclopropoxyphenyl)pyridin-3-yl]cyclopropoxy}methyl)benzenesulfonyl]pyrrolidin-3-yl}methyl)-3-[(2S,3R,4R,5R)-2,3,4,5,6-pentahydroxyhexyl]urea], the EC50 is under 100 nM. Under `O=C(NCCC1CN(S(=O)(=O)c2ccc(Cl)c(COC3(c4cnccc4-c4ccccc4OC4CC4)CC3)c2)C1)NC[C@H](O)[C@@H](O)[C@H](O)[C@H](O)CO` [Compound I-421, 1-(2-{1-[4-chloro-3-({1-[4-(2-cyclopropoxyphenyl)pyridin-3-yl]cyclopropoxy}methyl)benzenesulfonyl]azetidin-3-yl}ethyl)-3-[(2S,3R,4R,5R)-2,3,4,5,6-pentahydroxyhexyl]urea] stands under 100 nM; under `O=C(NC[C@H](O)[C@@H](O)[C@H](O)[C@H](O)CO)NC1CCC(CCNS(=O)(=O)c2ccc(Cl)c(COC3(c4cnccc4-c4ccccc4OC4CC4)CC3)c2)CC1` (stereo partly drawn) [Compound I-422, 1-(4-{2-[4-chloro-3-({1-[4-(2-cyclopropoxyphenyl)pyridin-3-yl]cyclopropoxy}methyl)benzenesulfonamido]ethyl}cyclohexyl)-3-[(2S,3R,4R,5R)-2,3,4,5,6-pentahydroxyhexyl]urea], under 100 nM; under `O=C(NCCCN1CCN(S(=O)(=O)c2ccc(Cl)c(COC3(c4cnccc4-c4ccccc4OC4CC4)CC3)c2)CC1)NC[C@H](O)[C@@H](O)[C@H](O)[C@H](O)CO` [Compound I-423, 1-(3-{4-[4-chloro-3-({1-[4-(2-cyclopropoxyphenyl)pyridin-3-yl]cyclopropoxy}methyl)benzenesulfonyl]piperazin-1-yl}propyl)-3-[(2S,3R,4R,5R)-2,3,4,5,6-pentahydroxyhexyl]urea], 126 to 1000 nM.

For the compound `O=C(NCC1CCN(S(=O)(=O)c2ccc(Cl)c(COC3(c4cnccc4-c4ccccc4OC4CC4)CC3)c2)CC1)NC[C@H](O)[C@@H](O)[C@H](O)[C@H](O)CO` [Compound I-424, 1-({1-[4-chloro-3-({1-[4-(2-cyclopropoxyphenyl)pyridin-3-yl]cyclopropoxy}methyl)benzenesulfonyl]piperidin-4-yl}methyl)-3-[(2S,3R,4R,5R)-2,3,4,5,6-pentahydroxyhexyl]urea], the EC50 was under 100 nM. For `O=C(NCCN1CCN(S(=O)(=O)c2ccc(Cl)c(COC3(c4cnccc4-c4ccccc4OC4CC4)CC3)c2)CC1)NC[C@H](O)[C@@H](O)[C@H](O)[C@H](O)CO` [Compound I-425, 1-(2-{4-[4-chloro-3-({1-[4-(2-cyclopropoxyphenyl)pyridin-3-yl]cyclopropoxy}methyl)benzenesulfonyl]piperazin-1-yl}ethyl)-3-[(2S,3R,4R,5R)-2,3,4,5,6-pentahydroxyhexyl]urea], the EC50 was 126 to 1000 nM.

As to `O=C(NC[C@H](O)[C@@H](O)[C@H](O)[C@H](O)CO)NC1CN(S(=O)(=O)c2ccc(Cl)c(COC3(c4cnccc4-c4ccccc4OC4CC4)CC3)c2)C1` [Compound I-427, 1-{1-[4-chloro-3-({1-[4-(2-cyclopropoxyphenyl)pyridin-3-yl]cyclopropoxy}methyl)benzenesulfonyl]azetidin-3-yl}-3-[(2S,3R,4R,5R)-2,3,4,5,6-pentahydroxyhexyl]urea], the EC50 is 126 to 1000 nM.

`O=C(NC[C@H](O)[C@@H](O)[C@H](O)[C@H](O)CO)NC1CC2(CCN(S(=O)(=O)c3ccc(Cl)c(COC4(c5cnccc5-c5ccccc5OC5CC5)CC4)c3)CC2)C1` [Compound I-428, 1-{7-[4-chloro-3-({1-[4-(2-cyclopropoxyphenyl)pyridin-3-yl]cyclopropoxy}methyl)benzenesulfonyl]-7-azaspiro[3.5]nonan-2-yl}-3-[(2S,3R,4R,5R)-2,3,4,5,6-pentahydroxyhexyl]urea]: the EC50 was 126 to 1000 nM.

Consider `O=C(NC[C@H](O)[C@@H](O)[C@H](O)[C@H](O)CO)NC1CCN(S(=O)(=O)c2ccc(Cl)c(COC3(c4cnccc4-c4ccccc4OC4CC4)CC3)c2)C1` (stereo partly drawn) [Compound I-429, 1-{l-[4-chloro-3-({1-[4-(2-cyclopropoxyphenyl)pyridin-3-yl]cyclopropoxy}methyl)benzenesulfonyl]pyrrolidin-3-yl}-3-[(2S,3R,4R,5R)-2,3,4,5,6-pentahydroxyhexyl]urea], for which the EC50 is 126 to 1000 nM.

As to `O=C(NC[C@H](O)[C@@H](O)[C@H](O)[C@H](O)CO)NC1CC2(C1)CN(S(=O)(=O)c1ccc(Cl)c(COC3(c4cnccc4-c4ccccc4OC4CC4)CC3)c1)C2` [Compound I-430, 1-{2-[4-chloro-3-({1-[4-(2-cyclopropoxyphenyl)pyridin-3-yl]cyclopropoxy}methyl)benzenesulfonyl]-2-azaspiro[3.3]heptan-6-yl}-3-[(2S,3R,4R,5R)-2,3,4,5,6-pentahydroxyhexyl]urea], the EC50 was 126 to 1000 nM.
